Source: ChEMBL document CHEMBL3627608, “Crystal structures of human RIP2 kinase catalytic domain complexed with ATP-competitive inhibitors: Foundations for understanding inhibitor selectivity” (Bioorg Med Chem, 2015)
pIC50: −log10 of the molar value.

What was measured:
[1] = target: Serine/threonine-protein kinase PLK3 (Homo sapiens) (UniProt Q9H4B4); test: Inhibition of PLK3 (unknown origin) at 10 uM after 120 mins P33 radiolabeled kinase activity assay
[2] = target: T1, Muscle, skeletal receptor tyrosine-protein kinase (Homo sapiens) (UniProt O15146); test: Inhibition of MUSK (unknown origin) at 10 uM after 120 mins P33 radiolabeled kinase activity assay
T1 sequence (whole entry): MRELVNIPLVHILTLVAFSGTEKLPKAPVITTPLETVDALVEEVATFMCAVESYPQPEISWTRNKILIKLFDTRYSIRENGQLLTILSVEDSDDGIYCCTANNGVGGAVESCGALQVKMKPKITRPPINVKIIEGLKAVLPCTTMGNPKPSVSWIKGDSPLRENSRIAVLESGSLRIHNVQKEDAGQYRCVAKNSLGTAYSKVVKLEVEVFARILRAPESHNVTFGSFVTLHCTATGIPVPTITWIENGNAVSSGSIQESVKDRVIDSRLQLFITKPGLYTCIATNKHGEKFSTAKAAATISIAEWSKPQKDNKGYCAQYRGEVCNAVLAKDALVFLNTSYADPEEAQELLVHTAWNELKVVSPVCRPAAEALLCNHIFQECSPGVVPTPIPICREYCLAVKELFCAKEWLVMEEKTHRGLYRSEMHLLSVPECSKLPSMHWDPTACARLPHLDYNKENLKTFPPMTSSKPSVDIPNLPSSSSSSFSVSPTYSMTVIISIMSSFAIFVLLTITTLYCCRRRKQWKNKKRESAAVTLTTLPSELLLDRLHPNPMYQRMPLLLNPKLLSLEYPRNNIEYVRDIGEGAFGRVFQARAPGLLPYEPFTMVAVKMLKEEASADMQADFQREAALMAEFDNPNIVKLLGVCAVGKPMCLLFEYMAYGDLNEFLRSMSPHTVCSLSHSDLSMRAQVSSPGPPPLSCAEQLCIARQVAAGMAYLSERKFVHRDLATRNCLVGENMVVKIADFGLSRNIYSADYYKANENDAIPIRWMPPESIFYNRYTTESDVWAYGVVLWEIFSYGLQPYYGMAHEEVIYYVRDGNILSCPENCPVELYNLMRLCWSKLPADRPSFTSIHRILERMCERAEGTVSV

[3] = target: Serine/threonine-protein kinase 32B (Homo sapiens) (UniProt Q9NY57); test: Inhibition of STK32B (unknown origin) at 10 uM after 120 mins P33 radiolabeled kinase activity assay
Chain of Serine/threonine-protein kinase 32B (Homo sapiens) (Q9NY57 whole entry): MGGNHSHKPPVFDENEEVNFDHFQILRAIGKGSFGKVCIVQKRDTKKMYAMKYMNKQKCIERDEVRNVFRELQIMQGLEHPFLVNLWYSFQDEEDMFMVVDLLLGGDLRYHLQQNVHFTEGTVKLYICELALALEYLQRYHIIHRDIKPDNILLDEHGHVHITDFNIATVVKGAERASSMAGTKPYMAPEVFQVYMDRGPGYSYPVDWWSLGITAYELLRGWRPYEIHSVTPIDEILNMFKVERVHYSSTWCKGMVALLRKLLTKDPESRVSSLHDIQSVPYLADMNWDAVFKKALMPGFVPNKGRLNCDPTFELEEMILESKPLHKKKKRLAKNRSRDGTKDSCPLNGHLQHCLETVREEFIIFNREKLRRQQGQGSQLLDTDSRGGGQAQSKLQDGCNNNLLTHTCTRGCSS

[4] = target: Tyrosine-protein kinase SYK (Homo sapiens) (UniProt P43405); test: Inhibition of SYK (unknown origin) at 10 uM after 120 mins P33 radiolabeled kinase activity assay
[5] = target: T2, Non-receptor tyrosine-protein kinase TNK1 (Homo sapiens) (UniProt Q13470); test: Inhibition of TNK1 (unknown origin) at 10 uM after 120 mins P33 radiolabeled kinase activity assay
T2 sequence (whole entry): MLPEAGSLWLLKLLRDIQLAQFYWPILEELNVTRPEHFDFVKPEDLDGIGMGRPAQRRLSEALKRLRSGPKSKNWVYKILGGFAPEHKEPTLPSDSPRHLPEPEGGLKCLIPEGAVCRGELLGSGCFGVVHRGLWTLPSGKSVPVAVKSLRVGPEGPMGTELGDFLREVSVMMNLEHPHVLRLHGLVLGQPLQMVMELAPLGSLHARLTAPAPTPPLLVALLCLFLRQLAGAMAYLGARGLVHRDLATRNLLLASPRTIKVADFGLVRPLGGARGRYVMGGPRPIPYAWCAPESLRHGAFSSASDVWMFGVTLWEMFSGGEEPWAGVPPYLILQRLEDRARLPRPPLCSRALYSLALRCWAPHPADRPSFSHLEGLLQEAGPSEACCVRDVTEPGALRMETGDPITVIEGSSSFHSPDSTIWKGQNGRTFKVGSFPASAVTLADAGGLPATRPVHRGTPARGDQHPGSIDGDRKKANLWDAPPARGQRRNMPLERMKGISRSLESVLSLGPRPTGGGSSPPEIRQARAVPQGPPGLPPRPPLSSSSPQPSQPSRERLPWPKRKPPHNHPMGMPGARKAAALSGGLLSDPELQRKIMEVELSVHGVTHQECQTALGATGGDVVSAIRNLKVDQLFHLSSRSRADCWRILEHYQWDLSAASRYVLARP

[6] = target: T3, Kinase suppressor of Ras 2 (Homo sapiens) (UniProt Q6VAB6); test: Inhibition of KSR2 (unknown origin) at 10 uM after 120 mins P33 radiolabeled kinase activity assay
T3 sequence (whole entry): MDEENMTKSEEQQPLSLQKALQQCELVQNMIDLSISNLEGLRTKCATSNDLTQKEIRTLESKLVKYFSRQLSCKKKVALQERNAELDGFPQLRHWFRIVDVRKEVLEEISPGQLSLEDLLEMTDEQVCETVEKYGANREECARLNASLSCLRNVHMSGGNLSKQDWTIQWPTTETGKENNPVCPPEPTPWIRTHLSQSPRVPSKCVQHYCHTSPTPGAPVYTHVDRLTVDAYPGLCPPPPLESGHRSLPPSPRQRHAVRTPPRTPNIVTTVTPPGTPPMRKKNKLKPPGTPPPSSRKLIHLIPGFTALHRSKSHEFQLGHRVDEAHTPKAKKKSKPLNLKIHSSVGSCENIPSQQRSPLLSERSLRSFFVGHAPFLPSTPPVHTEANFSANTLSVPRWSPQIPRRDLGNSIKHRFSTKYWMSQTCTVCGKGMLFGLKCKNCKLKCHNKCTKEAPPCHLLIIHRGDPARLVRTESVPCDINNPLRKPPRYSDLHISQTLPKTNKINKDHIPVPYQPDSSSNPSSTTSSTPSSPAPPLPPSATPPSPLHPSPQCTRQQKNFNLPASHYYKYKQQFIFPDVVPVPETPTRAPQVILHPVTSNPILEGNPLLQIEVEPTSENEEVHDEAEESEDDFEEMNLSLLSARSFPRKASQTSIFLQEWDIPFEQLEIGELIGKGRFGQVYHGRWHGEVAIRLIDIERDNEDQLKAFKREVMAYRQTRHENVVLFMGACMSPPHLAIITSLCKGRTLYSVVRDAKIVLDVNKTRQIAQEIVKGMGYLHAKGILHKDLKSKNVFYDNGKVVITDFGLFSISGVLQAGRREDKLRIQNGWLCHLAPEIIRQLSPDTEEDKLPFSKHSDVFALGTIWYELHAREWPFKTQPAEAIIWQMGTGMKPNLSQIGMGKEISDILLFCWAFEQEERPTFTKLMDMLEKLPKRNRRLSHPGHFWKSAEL

[7] = target: Receptor-interacting serine/threonine-protein kinase 2 (Homo sapiens, UniProt O43353); test: Inhibition of full-length FLAG-6His-TEV tagged human RIP2 expressed in Sf9 cells by fluorescent polarization assay
Chain of Receptor-interacting serine/threonine-protein kinase 2 (O43353 whole entry): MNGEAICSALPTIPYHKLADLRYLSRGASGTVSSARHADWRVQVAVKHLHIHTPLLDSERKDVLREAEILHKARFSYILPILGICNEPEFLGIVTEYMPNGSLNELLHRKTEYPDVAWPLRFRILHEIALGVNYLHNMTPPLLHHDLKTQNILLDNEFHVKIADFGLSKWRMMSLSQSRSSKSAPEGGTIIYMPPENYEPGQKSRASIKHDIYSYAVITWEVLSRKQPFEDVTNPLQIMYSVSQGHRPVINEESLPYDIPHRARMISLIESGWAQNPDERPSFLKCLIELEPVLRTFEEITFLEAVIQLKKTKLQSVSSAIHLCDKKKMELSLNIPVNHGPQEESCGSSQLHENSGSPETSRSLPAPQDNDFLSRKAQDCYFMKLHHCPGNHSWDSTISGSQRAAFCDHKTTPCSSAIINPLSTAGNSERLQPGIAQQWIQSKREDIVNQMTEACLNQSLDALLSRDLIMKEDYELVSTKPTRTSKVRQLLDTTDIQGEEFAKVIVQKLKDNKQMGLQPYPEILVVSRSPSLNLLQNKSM

[8] = target: CDK6/cyclin D3 (Homo sapiens) (UniProt P30281+Q00534); test: Inhibition of CDK6/cyclin D3 (unknown origin) at 10 uM after 120 mins P33 radiolabeled kinase activity assay; assay type: protein-complex assay

Chain of Serine/threonine-protein kinase PLK3 (Homo sapiens) (Q9H4B4 whole entry, looked up): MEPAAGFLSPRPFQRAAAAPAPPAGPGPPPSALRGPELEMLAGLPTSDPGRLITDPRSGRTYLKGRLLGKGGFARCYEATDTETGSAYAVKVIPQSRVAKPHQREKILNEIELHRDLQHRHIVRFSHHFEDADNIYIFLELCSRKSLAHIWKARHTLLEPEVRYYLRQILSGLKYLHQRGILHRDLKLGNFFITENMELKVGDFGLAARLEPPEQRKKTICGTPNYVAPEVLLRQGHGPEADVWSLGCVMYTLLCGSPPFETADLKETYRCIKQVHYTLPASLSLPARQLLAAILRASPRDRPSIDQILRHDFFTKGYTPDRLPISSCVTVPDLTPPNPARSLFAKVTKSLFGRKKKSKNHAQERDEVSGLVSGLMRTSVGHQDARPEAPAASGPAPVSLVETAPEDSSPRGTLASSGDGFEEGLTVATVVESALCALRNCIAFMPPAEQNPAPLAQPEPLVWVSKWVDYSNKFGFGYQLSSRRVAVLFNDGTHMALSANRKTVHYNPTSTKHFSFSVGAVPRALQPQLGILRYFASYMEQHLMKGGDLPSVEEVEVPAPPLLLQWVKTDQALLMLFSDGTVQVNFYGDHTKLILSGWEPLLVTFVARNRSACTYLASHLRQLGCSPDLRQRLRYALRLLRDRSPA

## COCCNC(=O)c1ccc2c(c1)nc(-c1cnc(-c3ccc(Cl)cc3)[nH]1)n2CCOC
[1]
  inhibition: 0.99%
[2]
  inhibition: -5.11%
[3]
  inhibition: -6.19%
[4]
  inhibition: 5.53%
[5]
  inhibition: 22.5%
[6]
  inhibition: 3.38%
[7]
  pIC50: 6.30
[8]
  inhibition: 5.8%

## CS(=O)(=O)c1cccc(Nc2nccc(-c3sc(N4CCOCC4)nc3-c3cccc(NS(=O)(=O)c4c(F)cccc4F)c3)n2)c1
[1]
  inhibition: 3.68%
[2]
  inhibition: 33.2%
[3]
  inhibition: 24.6%
[4]
  inhibition: 21.4%
[5]
  inhibition: 95.2%
[6]
  inhibition: 1.08%
[7]
  pIC50: 8.10
[8]
  inhibition: 83.8%

## CC(C)(C)c1cc(NC(=O)Nc2ccc(Oc3ccncc3)cc2)no1
[1]
  inhibition: -1.93%
[2]
  inhibition: 16.4%
[3]
  inhibition: 9.05%
[4]
  inhibition: 6.66%
[5]
  inhibition: 89%
[6]
  inhibition: 3.41%
[7]
  pIC50: 6.49
[8]
  inhibition: 43.8%
